From ChEMBL document CHEMBL1147194, “Synthesis and evaluation of galactofuranosyl N,N-dialkyl sulfenamides and sulfonamides as antimycobacterial agents” (2007) come the findings set out here.

SMILES strings stand for the structures. Converted amounts (≈) assume the structure as drawn.

The experiment deals with Mycolicibacterium smegmatis. The experiment can be described thus: Antimycobacterial activity against Mycobacterium smegmatis ATCC 14468 after 72 hrs by broth microdilution assay. Format: functional. The conditions noted are these: ATCC 14468, 72 h. Background: Broth dilution looks for growth in wells or tubes with falling amounts of substance.
As a reminder, the MIC is the smallest concentration in the dilution series that meets the test's criterion for growth inhibition. A high value points to weaker potency. `CCCCCCCCCCN(CCCCCCCCCC)S[C@@H]1O[C@@H]([C@H](O)CO)[C@H](O)[C@H]1O` returned an MIC of 1 µg/mL (≈ 2.03 µM). `CCCCCCN(CCCCCC)S(=O)(=O)[C@@H]1O[C@@H]([C@H](O)CO)[C@H](O)[C@H]1O` returned an MIC of 64 µg/mL (≈ 156 µM).

Consider `OC[C@@H](O)[C@@H]1O[C@@H](SN(Cc2ccccc2)Cc2ccccc2)[C@H](O)[C@H]1O`, for which the lowest concentration to inhibit growth (MIC) was 16 µg/mL (≈ 40.9 µM). The figure for `CCCCCCN(CCCCCC)S[C@@H]1O[C@@H]([C@H](O)CO)[C@H](O)[C@H]1O` is above 64 µg/mL. For `O=S(=O)([C@@H]1O[C@@H]([C@H](O)CO)[C@H](O)[C@H]1O)N(Cc1ccccc1)Cc1ccccc1`, the minimum inhibitory concentration (MIC) was above 64 µg/mL.

The compound `CCCCCCCCN(CCCCCCCC)S(=O)(=O)[C@@H]1O[C@@H]([C@H](O)CO)[C@H](O)[C@H]1O` gave an MIC of 2 µg/mL (≈ 4.28 µM). `CCCCCCCCN(CCCCCCCC)S[C@@H]1O[C@@H]([C@H](O)CO)[C@H](O)[C@H]1O`: it took 4 µg/mL (≈ 9.18 µM) to inhibit growth (MIC). The figure for `CCCCCCCCCCN(CCCCCCCCCC)S(=O)(=O)[C@@H]1O[C@@H]([C@H](O)CO)[C@H](O)[C@H]1O` is above 32 µg/mL.
